Experimental data as given in PMC8322648, “Brevibacillin 2V Exerts Its Bactericidal Activity via Binding to Lipid II and Permeabilizing Cellular Membranes” (Frontiers in Microbiology, 2021).
pKd: −log10 of the molar value.

Tests used:
[1] = test system: S. aureus ATCC15975 (MRSA); experiment: Time-killing assay; type: cell-based, Staphylococcus aureus; details: for killing kinetics / capacity, in words: 10 × MIC (brevibacillins 20 μg/ml; nisin 40 μg/ml)
Method: This assay was performed according to a previously described procedure ([Ling et al., 2015]; [Zhao et al., 2020b]). An overnight culture of cells [S. aureus ATCC15975 (MRSA)] was diluted 50-fold in MHB and incubated at 37°C with aeration at 220 rpm. Bacteria were grown to an OD600 of 0.5, and then, the concentration of cells was adjusted to ≈ 5 × 10^6 cells per ml. Bacteria were then challenged with nisin (40 μg/ml), brevibacillin (20 μg/ml), brevibacillin V (20 μg/ml), brevibacillin I (20 μg/ml), or brevibacillin 2V (20 μg/ml) in culture tubes at 37°C and 220 rpm (peptides at 10 × MIC, a desirable concentration at the site of infection). Bacteria not treated with peptides were used as negative controls. At desired time points, 200 μl aliquots were taken, centrifuged at 8,000 g for 2 min, and resuspended in 200 μl of MHB. 10-fold serially diluted samples were plated on MHA plates. After incubated at 37°C overnight, colonies were counted and c.f.u. per ml was calculated. Each experiment was performed in triplicate.

[2] = Circular dichroism assay, 7-Lipid II; type: binding; details: 10 mM boric acid-NaOH pH 7.5, 0.1% CHAPS, 20°C; for conformational change in presence of DOPC: antibiotic 50 μM, DOPC vesicles 100 μM; for conformational change in presence of 7-Lipid II: antibiotic and 7-Lipid II 50 μM
Method: Lipid II and 7-Lipid II (a heptaprenyl version of Lipid II) were synthesized and purified as described in a previous study ([Breukink et al., 2003]; Figures 2A,B). Purified Lipid II and 7-Lipid II were dissolved in CHCl3/MeOH (2:1) and stored at −20°C until use, and the concentration was determined after destruction to inorganic phosphate according to [Rouser et al. (1970)]. 7-Lipid II was only used in circular dichroism assays, while wild-type Lipid II was used in all of the other assays.
7-Lipid II and 1,2-dioleoyl-sn-glycero-3-phosphocholine (DOPC) were resuspended in 10 mm boric acid-NaOH pH 7.5 containing 0.1% CHAPS. The final concentration of antibiotics and 7-Lipid II was adjusted to 50 μm, while a 100 μm final concentration of DOPC vesicles was used. After added the samples to a quartz cuvette with a path length of 1 mm, the CD spectra were recorded with a Jasco-810 CD spectropolarimeter at 20°C. The ellipticity was recorded between 185 nm and 260 nm at a 0.2-nm step size with 1-s response time. The spectra were averaged over five recordings with a scanning speed of 50 nm/min.

[3] = Isothermal titration calorimetry; type: binding; details: Figure 5; DOPC LUVs with 2 mol % Lipid II titrated into 50 μM peptide, 10 mM Tris-HCl, 100 mM NaCl, pH 8, 25°C
Method: LUVs containing Lipid II (2%, mol/mol) were prepared by mixing the appropriate volumes of Lipid II and DOPC stock solutions in CHCl3/MeOH (2:1, v/v). The lipid solutions were dried by a nitrogen stream and hydrated with 10 mm Tris-HCl, 100 mm NaCl, and pH 8 buffer to a lipid-phosphate concentration of ~ 20 mm. LUVs were obtained after 10 times freeze-thaw cycles followed by 10 rounds of extrusion through 200 nm membrane filters (Whatman Nuclepore, Track-Etch Membranes). The concentration of lipid-phosphate was determined as described ([Rouser et al., 1970]).
Isothermal titration calorimetry was performed with the Low Volume Nano ITC (Waters LLC, New Castle, DE, United States) to determine the interaction between LUVs and brevibacillins. Brevibacillins were diluted in a buffer (10 mm Tris-HCl, 100 mm NaCl, and pH 8) to a final concentration of 50 μm. Samples were degassed before use. The chamber was filled with 177 μl of the brevibacillins solutions, and the LUVs were titrated into the chamber at a rate of 2 μl/300 s with a stirring rate of 300 rpm. Experiments were performed at 25°C. Control experiments were performed with Lipid II-free LUVs. The Kd values of brevibacillins to Lipid II were calculated using the Nano Analyze Software (Waters LLC).

S. aureus (MRSA) = experiment: Membrane permeability assay, concentration series (fluorescence microscopy); type: cell-based, Staphylococcus aureus; details: 15 min; for concentration needed to permeabilize virtually all cellular membranes: comparison of brevibacillin and brevibacillin 2V
Method: Staphylococcus aureus ATCC15975 (MRSA) was grown to an OD600 of 0.8. The culture was pelleted at 5,000 × g for 5 min and washed three times in 10 mm HEPES with 10 mm glucose (pH 7.2). After normalization of the cell density to an OD600 of 0.2 in 10 mm HEPES with 10 mm glucose (pH 7.2), a 2-fold MIC concentration of brevibacillins (4 μg/ml) or nisin (8 μg/ml) was added. At the same time, SYTO® 9 and propidium iodide (LIVE/DEAD Baclight Bacterial Viability Kit, Invitrogen) were added to the above cell suspensions. After incubation at room temperature for 15 min, peptides were removed and washed three times with 10 mm HEPES with 10 mm glucose (pH 7.2). Then, the cell suspensions were loaded on 1.5% agarose pads and analyzed by DeltaVision Elite microscope (Applied Precision; [Zhao and Kuipers, 2021]).
GraphPad Prism 7.0 was used to fit the data of time-killing assay, DiSC3(5) assay, fluorescence quenching assay, ITC assay, and CF Leakage assay in Figures 3–7. The fluorescence images (ratio of membrane permeabilized cells) were quantified by the software Adobe Photoshop 2021. The Kd values of brevibacillins to Lipid II were calculated using the Nano Analyze Software (Waters LLC). The statistical significance of the data was assessed using Duncan’s multiple range test with the software SPSS Statistics 26; values of p < 0.05 were considered to be statistically significant.
Figure 7 Brevibacillins disrupt membrane permeability without the need for Lipid II binding. (A), Cartoon schematic of the assay used to assess membrane permeability disruption of brevibacillins. (B), CF releases (%) vs. time graph showing the effects of adding brevibacillins to DOPC-LUVs with 0.1% Lipid II; peptide concentrations were 100 nm; a, when peptides were added; and b, when 20% Triton X-100 added. (C), CF releases (%) vs. time graph showing the effects of adding brevibacillins to LUVs of pure DOPC; peptide concentrations were 100 nm; a, when peptides were added; and b, when 20% Triton X-100 was added. (D), fluorescence microscopic images of S. aureus (MRSA) after have been treated by a series concentrations of brevibacillins and nisin for 15 min. (E), the ratio of membrane permeabilized cells that was quantified by Adobe Photoshop 2021; the data are representative of three independent experiments.
To investigate the in vivo membrane disruption capacity of brevibacillin and brevibacillin 2V, a membrane permeability assay was performed with a series of concentrations of antibiotics. Nisin was used as a control.

Brevibacillin
killing kinetics / capacity, in words ([1]; MHB, 37°C): intermediate killing capacity | time to complete killing of all cells ([1]; 10 × MIC (nisin 40 μg/ml; brevibacillins 20 μg/ml), ≈ 5 × 10^6 cells per ml, MHB, 37°C, 220 rpm, triplicate): ≤ 2 h | conformational change in presence of DOPC [2]: no change was apparent | conformational change in presence of 7-Lipid II [2]: significant conformational change | pKd [3]: 6.06 | membrane permeabilization capacity, comparison (S. aureus (MRSA); 100 nM and 400 nM, ratio of membrane permeabilized cells, three independent experiments, p < 0.05): significantly (p < 0.05) higher membrane permeabilization capacity than brevibacillin 2V | concentration needed to permeabilize virtually all cellular membranes (S. aureus (MRSA)): a similar concentration of brevibacillin and brevibacillin 2V is needed

Brevibacillin 2V
killing kinetics / capacity, in words ([1]; MHB, 37°C): slowest killing capacity among brevibacillins, with similar killing kinetics as nisin | bactericidal or bacteriostatic action ([1]; S. aureus (MRSA), 10 × MIC): bactericidal antimicrobial agent | conformational change in presence of DOPC [2]: no change was apparent | conformational change in presence of 7-Lipid II [2]: significant conformational change | pKd [3]: 5.10 | membrane permeabilization at 100 nM (S. aureus (MRSA); 100 nM, versus untreated group): did not induce membrane permeabilization | concentration needed to permeabilize virtually all cellular membranes (S. aureus (MRSA)): a similar concentration of brevibacillin and brevibacillin 2V is needed
